Experimental data published in patent publication US10703796B2, “CD44v6-derived cyclic peptides for treating cancers and angiogenesis related diseases” (AMCURE GMBH, priority 2014, dated 2020).
Bridges are numbered along the chain shown (N, C = ends). Where no end group is shown, it is not given here. [ ]: non-standard residue; d: D form.

What was measured:
Format in all cases: cell-based, human
[1] = tested on: c-Met; experiment: HGF-induced activation of c-Met in Panc1 cells (blot of activated Met vs total Met); conditions: peptide 30 nM for 5 min at 37° C. prior to HGF 10 ng/ml for 5 min
Procedure: (§1) Human adenocarcinoma cells, Panc1, were seeded at 2×10^5 cells per well in a 6-well plate. The day after seeding the cells, they were starved for 24 h. The following day, the cells were treated as indicated with either alga1 or D3alga1, a control peptide (N-A-A-A-E (SEQ ID NO: 37)) at a concentration of 30 nM for 5 min at 37° C. prior to induction with HGF (10 ng/ml) at 37° C. for 5 min. Results are given in FIG. 3 (A: alga1; B: D3alga1).
(§2) Human adenocarcinoma cells, Panc1, were seeded at 2×10^5 cells per well in a 6-well plate. The day after seeding, the cells were starved for 24 h. The following day, the cells were treated as indicated with either D1alga1, D2alga1 or D3alga1, a human CD44v6 14mer (h14mer) or control peptide (N-A-A-A-E (SEQ ID NO: 37)) at a concentration of 30 nM for 5 min at 37° C. prior to induction with HGF (10 ng/ml) at 37° C. for 5 min.

[2] = tested on: Erk; experiment: HGF-induced activation of Erk in Panc1 cells (blot of activated Erk vs total Erk); conditions: peptide 30 nM for 5 min at 37° C. prior to HGF 10 ng/ml for 5 min
Procedure: as §1, §2

[3] = tested on: Panc 1 cells; experiment: Wound healing assay, Example 9 (FIG. 15); conditions: 500 nM, HGF 100 ng/ml, photos up to 48 hours after induction
Procedure: Cell migration is connected to angiogenesis where cells need to migrate in order to form new blood vessels. Angiogenesis is related to cancer metastasis.
Panc 1 cells were seeded in 6-well plates at a concentration of 3×10^5 cells per well and were allowed to adhere and form a confluent monolayer. After a starving period of 24 hours, a scratch was inserted using a sterile pipette tip. Medium was aspirated to remove scratched cells and replaced by new starving medium. containing reagents as indicated at a concentration of […] tested for their blocking quality.
The following reagents were added to the medium at a concentration of 500 nM to test their blocking efficiency: D3-epga1, D4-epga1, D2-epal1, D3-epal1, D4-epal1, D3-alga1, D3-alga2, D4-alga2, D5-alga2, D6-alga3, Epga-1, Epal-1, Alga-2 and Alga-3. After 30 min incubation at 37° C., growth factor HGF was added to induce migration (HGF 100 ng/ml). Photos of the cells were taken immediately after scratch (Day 1), 24 hours (Day 2) and 48 hours (D3) after induction using a Canon Power Shot G12 digital camera.

Substance: D1alga1: cyclic CD44v6 5mer containing a D-amino acid at position 1 ([dK]RWHE; lactam N-5)
- activation of c-Met [1]: blocks activation of c-Met
- activation of Erk [2]: blocks activation of c-Met and Erk

Substance: D2alga1: cyclic CD44v6 5mer containing a D-amino acid at position 2 (K[dR]WHE; lactam N-5)
- activation of c-Met [1]: blocks activation of c-Met
- activation of Erk [2]: blocks activation of c-Met and Erk

Substance: D3-epga1: cyclic 5 mer, ep/ga cyclisation, D-amino acid at position 3 per naming scheme (FIG. 13) (KR[dW]HE; lactam 1-5)
- blocking of cell migration [3]: efficient in blocking cell migration

Substance: cy[αKGNRWHEγ] (KGNRW[dH]E; lactam N-7) [D6-alga3, cyclisation via N-terminal amino group of K and side chain carboxyl group of E, H is a D-amino acid]
- blocking of cell migration [3]: Most efficient blocking of cell migration

Substance: cy[αKNRWHEγ] (lactam N-6) [Alga-2]
- blocking of cell migration [3]: Most efficient blocking of cell migration

Substance: cy[εKRWHEα]γ] (K[dR]WHE; lactam 1-C; also: cyclised per cy[εKRWHEα]γ], linkage unclear) [D2-epal1]
- blocking of cell migration [3]: Most efficient blocking of cell migration
